The values that follow come from publication PMC11841048 (ACS Infectious Diseases, 2025).

One experiment addresses CjIMPDH (Campylobacter jejuni, UniProt Q0P9J4, DEL92-194/T195G). The experiment in a line: biochemical. The following applies: Ki,app.
In experiment [1] the target is T1, BaIMPDH (wild-type) (Bacillus anthracis, UniProt A0A6L8P2U9). The experiment in a line: biochemical. The conditions noted are these: Ki,app.
The target in the next experiment is BaIMPDH (Bacillus anthracis, UniProt A0A6L8P2U9). The experiment in a line: biochemical. Type of experiment: biochemical.
Chain of BaIMPDH (A0A6L8P2U9 221-487, added parts left off): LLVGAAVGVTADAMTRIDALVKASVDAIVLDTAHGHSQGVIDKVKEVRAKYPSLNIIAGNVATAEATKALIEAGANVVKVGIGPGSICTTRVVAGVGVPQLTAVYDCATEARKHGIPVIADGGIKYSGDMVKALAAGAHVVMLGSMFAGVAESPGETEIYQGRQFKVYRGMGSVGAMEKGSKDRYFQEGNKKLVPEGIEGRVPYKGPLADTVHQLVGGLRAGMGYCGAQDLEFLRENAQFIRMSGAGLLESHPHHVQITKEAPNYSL
The target of experiment [2] is T1, BaIMPDH (wild-type). Nature of the experiment: biochemical.
Another experiment deals with Ba-, Cj-, and ClpIMPDH. Type of experiment: biochemical.
The target in experiment [3] is T1, BaIMPDH (wild-type). Nature of the experiment: biochemical. Type of experiment: biochemical.
For experiment [4], the target named is T1, BaIMPDH (wild-type). The class given is biochemical.
Experiment [5] relates to BaIMPDH (wild-type). The following applies: cited from earlier work.
The target in experiment [6] is T1, BaIMPDH (wild-type). Nature of the experiment: biochemical. This is another data set of the same source.
For another experiment, the target named is SaIMPDH (Staphylococcus aureus, UniProt Q6GJQ7). The experiment in a line: biochemical.
Chain of SaIMPDH (Q6GJQ7 whole entry): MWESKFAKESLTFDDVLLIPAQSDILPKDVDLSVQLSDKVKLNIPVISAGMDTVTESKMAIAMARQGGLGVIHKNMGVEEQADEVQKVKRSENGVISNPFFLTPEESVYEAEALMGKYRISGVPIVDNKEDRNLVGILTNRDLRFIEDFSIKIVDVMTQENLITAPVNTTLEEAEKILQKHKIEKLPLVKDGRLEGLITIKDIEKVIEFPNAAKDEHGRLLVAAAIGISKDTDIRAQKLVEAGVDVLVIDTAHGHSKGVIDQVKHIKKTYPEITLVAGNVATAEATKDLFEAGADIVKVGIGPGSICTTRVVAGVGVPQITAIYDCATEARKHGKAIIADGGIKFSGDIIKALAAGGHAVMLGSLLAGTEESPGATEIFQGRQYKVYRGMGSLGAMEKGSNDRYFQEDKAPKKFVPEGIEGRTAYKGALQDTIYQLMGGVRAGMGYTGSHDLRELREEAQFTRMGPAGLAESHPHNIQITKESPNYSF
In a further experiment the target is SpIMPDH (Streptococcus pyogenes, UniProt P0C0H6). Nature of the experiment: biochemical.
Chain of SpIMPDH (P0C0H6 whole entry): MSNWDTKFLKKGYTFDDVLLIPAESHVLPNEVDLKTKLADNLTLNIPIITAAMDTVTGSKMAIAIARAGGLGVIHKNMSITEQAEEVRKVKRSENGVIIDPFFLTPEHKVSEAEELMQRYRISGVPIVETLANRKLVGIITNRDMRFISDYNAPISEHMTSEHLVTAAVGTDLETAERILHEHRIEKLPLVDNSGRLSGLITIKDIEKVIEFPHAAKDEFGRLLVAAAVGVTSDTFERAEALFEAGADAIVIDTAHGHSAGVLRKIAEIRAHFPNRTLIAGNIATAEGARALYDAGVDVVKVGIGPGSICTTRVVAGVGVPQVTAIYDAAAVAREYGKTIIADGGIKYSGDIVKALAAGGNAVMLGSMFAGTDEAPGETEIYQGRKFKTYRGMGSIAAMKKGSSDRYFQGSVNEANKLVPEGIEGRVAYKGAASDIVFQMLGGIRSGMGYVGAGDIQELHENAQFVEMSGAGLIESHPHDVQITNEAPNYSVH
In a further experiment the target is CpIMPDH (Cryptosporidium parvum, UniProt Q8T6T2). Nature of the experiment: biochemical.
Chain of CpIMPDH (Q8T6T2 whole entry): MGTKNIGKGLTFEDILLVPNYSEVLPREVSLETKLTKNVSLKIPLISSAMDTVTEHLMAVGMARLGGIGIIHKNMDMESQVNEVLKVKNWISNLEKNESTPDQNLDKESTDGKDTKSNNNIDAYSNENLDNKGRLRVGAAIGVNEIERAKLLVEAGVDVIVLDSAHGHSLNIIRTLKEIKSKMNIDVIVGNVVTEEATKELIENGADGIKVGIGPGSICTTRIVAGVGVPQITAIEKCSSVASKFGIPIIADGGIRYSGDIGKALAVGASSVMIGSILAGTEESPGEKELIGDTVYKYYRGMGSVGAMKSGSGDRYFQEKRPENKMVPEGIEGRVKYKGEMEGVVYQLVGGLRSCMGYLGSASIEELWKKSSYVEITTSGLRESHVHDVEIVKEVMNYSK
The mark [7] stands for this setting: k–8/k8, inhibitor dissociation constant from E·IMP.
Setting [8] is: k–9/k9, inhibitor dissociation constant from E-XMP*.

Structures are written as SMILES. Values joined by “and” are separate entries in the source; they are usually repeats but may differ in a detail not shown here. Identical values can stand only once. Like-named read-outs stand apart in the source and are kept apart here.

T1 sequence (A0A6L8P2U9 221-487, added parts left off): as the sequence (A0A6L8P2U9 221-487, added parts left off) above

For `C=C(C)c1cccc(C(C)(C)NC(=O)Nc2ccc(Cl)c(NC3OC[C@@H](O)[C@H](O)[C@@H]3O)c2)c1` (stereo partly shown) [P221], the Ki came out at 0.046 µM on CjIMPDH and 0.02 µM on BaIMPDH (wild-type) [1].

On to `C=C(C)c1cccc(C(C)(C)NC(=O)Nc2ccc(Cl)c(NC3OCC(O)C(O)C3O)c2)c1` (stereo not shown) [P176], for which the Ki on CjIMPDH is 0.177 µM and 0.077 µM; at BaIMPDH (wild-type) [1], 0.016 µM.

Consider `Nc1ncnc2c1ncn2[C@@H]1O[C@H](COP(=O)(O)OP(=O)(O)O)[C@@H](O)[C@H]1O` [ADP], for which the Ki at BaIMPDH (read-out: Ki,app) turned out to be 6200 µM.

`C/C(=N\OCCN)c1cccc(C(C)(C)NC(=O)Nc2ccc(Cl)c([N+](=O)[O-])c2)c1` [P131]: the Kd is 0.11 µM on BaIMPDH (wild-type) [2] (setting [7]) and 0.061 µM at BaIMPDH (wild-type) [2] (setting [8]). Further, the Ki on BaIMPDH (wild-type) [1] is 0.094 µM.

In the case of `C=C(C)c1cccc(C(C)(C)NC(=O)Nc2ccc(Cl)c(OCC(=O)O)c2)c1` [P225], the Ki at CjIMPDH was 0.02 ± 0.01 µM; on BaIMPDH (wild-type) [1], 0.004 µM and 0.00043 µM.

As to `C=C(C)c1cccc(C(C)(C)NC(=O)Nc2ccc(Cl)c(OC3OC(CO)C(O)C3O)c2)c1` (stereo not shown) [P178], in the experiment on Ba-, Cj-, and ClpIMPDH, the “difference in affinity across the three enzymes” value is more than 5 fold. In addition, the Ki worked out at 0.097 µM on CjIMPDH and 0.012 µM on BaIMPDH (wild-type) [1].

For `C/C(=N\O)c1cccc(C(C)(C)NC(=O)Nc2ccc(Cl)c(-c3nc(C(F)(F)F)cs3)c2)c1` [P182], the Ki was determined as 0.032 ± 0.006 µM at CjIMPDH and 0.008 µM at BaIMPDH (wild-type) [1].

`Cn1nc(CC(=O)Nc2ccc3oc4c(c3c2)CCCC4)c2ccccc2c1=O` [D67]: the Kd was found to be 1.1 µM on BaIMPDH (wild-type) [2] (setting [7]) and 0.42 µM at BaIMPDH (wild-type) [2] (setting [8]). The Ki on BaIMPDH (wild-type) [1] is 0.698 µM and 0.671 µM.

For `CC(C)(NC(=O)Nc1ccc(Cl)cc1)c1cccc(/C(N)=N/O)c1` [P200], in the experiment on Ba-, Cj-, and ClpIMPDH, the “difference in affinity across the three enzymes” value is given as more than 5 fold. The Ki on CjIMPDH amounted to 0.145 ± 0.04 µM; at BaIMPDH (wild-type) [1], 0.016 µM.

Take `NC(=O)C1=CN([C@@H]2O[C@H](COP(=O)(O)OP(=O)(O)OC[C@H]3O[C@@H](n4cnc5c(N)ncnc54)[C@H](O)[C@@H]3O)[C@@H](O)[C@H]2O)C=CC1` [NADH]: on BaIMPDH (wild-type) [3], the “k4 (NADH release)” value is more than 446 s^–1 and the “k–4 (NADH association)” value is reported as more than 3.8 μM^–1 s^–1. Further, the Kd on BaIMPDH (wild-type) [3] (read-out: k4/k–4) was 120 µM.

Turning to `NC(=O)c1ccc[n+]([C@@H]2O[C@H](COP(=O)([O-])OP(=O)(O)OC[C@H]3O[C@@H](n4cnc5c(N)ncnc54)[C@H](O)[C@@H]3O)[C@@H](O)[C@H]2O)c1` [NAD^+], the “apparent Michaelis constant for NAD+, KmB” value on BaIMPDH (wild-type) [4] was 683 [ 601 , 779 ] µM. The Ki on BaIMPDH (wild-type) [4] (read-out: Ki(NAD^+)) is 9600 ± 2100 µM. The Km at BaIMPDH (wild-type) [4] (read-out: Km(NAD^+)) turned out to be 590 ± 100 µM. Further, at BaIMPDH (wild-type) [3], the “k2 (NAD^+ association with E·IMP)” value is listed as 0.0309 μM^–1 s^–1, the “k7 (NAD^+ association with E-XMP*)” value amounted to 0.00398 μM^–1 s^–1, the “k–2 (NAD^+ dissociation from E·IMP·NAD^+)” value was determined as 11.7 s^–1 and the “k–7 (NAD^+ dissociation from E-XMP*·NAD^+)” value is given as 31.8 s^–1. The Kd on BaIMPDH (wild-type) [3] (read-out: k–2/k2) turned out to be 380 µM. Moreover, the Kd on BaIMPDH (wild-type) [3] (read-out: k–7/k7) worked out at 8000 µM.

Consider `O=C(Cn1c(-c2ccccn2)nc2ccccc21)Nc1ccc2ccccc2c1` [C91], for which the “fold more potent inhibitor of BaIMPDH” value with BaIMPDH (wild-type) [5] was 10 fold. Moreover, the k-9 on BaIMPDH (wild-type) [2] is on record as 0.0976. In addition, the results for the Kd on BaIMPDH (wild-type) [2] (setting [7]) and on BaIMPDH (wild-type) [2] (setting [8]) were 0.28 µM and 0.11 µM, respectively. The koff stood at 0.239 s⁻¹ at BaIMPDH (wild-type) [2] (read-out: k-8) and 0.0844 s⁻¹ at BaIMPDH (wild-type) [2] (read-out: k-9).

Regarding `O=c1[nH]c(=O)c2ncn([C@@H]3O[C@H](COP(=O)(O)O)[C@@H](O)[C@H]3O)c2[nH]1` [XMP, xanthosine 5′-monophosphate], the Kd on BaIMPDH (wild-type) [6] worked out at 404 µM.

As for `C[C@H](Oc1cccc2ccccc12)C(=O)Nc1ccc2oc(-c3ccncc3)nc2c1` [Q21], the “preference for E-XMP* over E·IMP” value on BaIMPDH (wild-type) [2] is “same affinity for both enzyme forms”. In addition, the Kd at BaIMPDH (wild-type) [2] (setting [7]) turned out to be 0.038 µM; at BaIMPDH (wild-type) [2] (setting [8]) it was 0.043 µM. The Ki at BaIMPDH (wild-type) [1] is 0.063 µM and 0.023 µM.

Take `NC(=O)c1csc([C@@H]2O[C@H](CO)[C@@H](O)[C@H]2O)n1` [tiazofurin]: the Ki on BaIMPDH is 620 µM.

In the case of `C[C@@H](Oc1cc[n+]([O-])c2ccccc12)c1cn(-c2ccc(Cl)cc2)nn1` [A110], the Kd on BaIMPDH (wild-type) [3] (k–8/k8) is 1.7 µM; on BaIMPDH (wild-type) [3] (k–9/k9), 0.085 µM; at BaIMPDH (wild-type) [2] (setting [8]), 0.065 µM. In addition, the kon at 6 µM at BaIMPDH (wild-type) [3] (read-out: k8 (inhibitor association with E·IMP)) turned out to be 9.33e+06 M⁻¹ s⁻¹. Further, the kon on BaIMPDH (wild-type) [3] (read-out: k9 (inhibitor association with E-XMP*)) was found to be 3.52e+06 M⁻¹ s⁻¹. For the same compound, the koff at BaIMPDH (wild-type) [3] (read-out: k–8 (inhibitor dissociation from E·IMP·I)) was determined as 15.6 s⁻¹; at BaIMPDH (wild-type) [3] (read-out: k–9 (inhibitor dissociation from E-XMP*·I)), 0.3 s⁻¹. Moreover, the Ki on BaIMPDH (wild-type) [1] was 0.081 µM and 0.059 µM.

Take `C/C(=N\O)c1cccc(C(C)(C)NC(=O)Nc2ccc(Cl)c(C(N)=O)c2)c1` [P32]: the Ki at CjIMPDH is 0.095 ± 0.005 µM; at SaIMPDH, 0.023 ± 0.01 µM; on SpIMPDH, 0.164 ± 0.01 µM; on CpIMPDH, 0.005 ± 0.002 µM; on BaIMPDH (wild-type) [1], 0.052 µM and 0.047 µM.
